The target of the first assay is activated ERK2 (Homo sapiens, UniProt P28482). Description: ERK2 inhibition spectrophotometric coupled-enzyme assay. The assay is classed as biochemical.
Sequence of activated ERK2 (P28482 whole entry): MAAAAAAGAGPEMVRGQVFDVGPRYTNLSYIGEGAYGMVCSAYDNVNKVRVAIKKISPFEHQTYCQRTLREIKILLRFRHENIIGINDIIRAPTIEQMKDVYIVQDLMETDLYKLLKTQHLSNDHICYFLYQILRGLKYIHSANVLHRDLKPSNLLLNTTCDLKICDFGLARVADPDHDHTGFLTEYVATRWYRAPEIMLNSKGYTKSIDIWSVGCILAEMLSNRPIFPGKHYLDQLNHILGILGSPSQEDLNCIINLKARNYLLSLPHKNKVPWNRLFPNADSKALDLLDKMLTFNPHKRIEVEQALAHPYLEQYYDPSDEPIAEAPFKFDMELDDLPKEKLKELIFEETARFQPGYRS
Conditions: not given
As for the experimental part:
Compounds are assayed for the inhibition of ERK2 by a spectrophotometric coupled-enzyme assay (Fox et al (1998) Protein Sci 7, 2249). In this assay, a fixed concentration of activated ERK2 (10 nM) is incubated with various concentrations of the compound in DMSO (2.5%) for 10 min. at 30° C. in 0.1 M HEPES buffer, pH 7.5, containing 10 mM MgCl2, 2.5 mM phosphoenolpyruvate, 200 μM NADH, 150 μg/mL pyruvate kinase, 50 μg/mL lactate dehydrogenase, and 200 μM erktide peptide. The reaction is initiated by the addition of 65 μM ATP. The rate of decrease of absorbance at 340 nm is monitored, which indicates the extent of uninhibited enzyme present in the assay. The IC50 is evaluated from the rate data as a function of inhibitor concentration.
The compound numbers correspond to the compound numbers in Tables 1-3.
A word on the Ki: it is a dissociation constant, usually derived from enzyme kinetics or from competition with a known ligand. As to `O=C(N[C@H](CO)c1ccc(F)c(Cl)c1)c1cc(-c2[nH]ncc2-c2ccc(CNCCCl)c(Cl)c2)c[nH]1` [II-35], the Ki was under 1000 nM.

Still in this assay, the particulars now being: activated ERK2 10 nM, 65 μM ATP, 30° C., pH 7.5; read-out: ERK2 Inhibitory Activity (Ki class).
Take `O=C(N[C@H](CO)c1ccc(F)c(Cl)c1)c1cc(-c2[nH]ncc2-c2ccc(CNCCO)c(Cl)c2)c[nH]1` [II-30]: the Ki is under 1000 nM. On the same count and under the same terms, the value for `CCOC(=O)CN(CC(=O)OCC)Cc1ccc(-c2cn[nH]c2-c2c[nH]c(C(=O)N[C@H](CO)c3ccc(F)c(Cl)c3)c2)cc1Cl` [II-84] was under 1000 nM.

`CCOC(=O)CC(C)NCc1ccc(-c2cn[nH]c2-c2c[nH]c(C(=O)N[C@H](CO)c3ccc(F)c(Cl)c3)c2)cc1Cl` (stereo partly shown) [II-72]: the Ki was under 1000 nM. On to `CCN(CC)Cc1ccc(-c2cn[nH]c2-c2c[nH]c(C(=O)N[C@H](CO)c3ccc(F)c(Cl)c3)c2)cc1Cl` [II-34], for which the Ki was under 1000 nM. On the same count and under the same terms, under `CCC(=O)CN(CC(=O)CC)Cc1ccc(-c2cn[nH]c2-c2c[nH]c(C(=O)N[C@H](CO)c3ccc(F)c(Cl)c3)c2)cc1Cl` [II-73] stands under 1000 nM; under `CC(C)NCc1ccc(-c2cn[nH]c2-c2c[nH]c(C(=O)N[C@H](CO)c3ccc(F)c(Cl)c3)c2)cc1Cl` [II-70], under 1000 nM; under “4-{4-[3-Chloro-4-(methanesulfonylamino-methyl)-phenyl]-1H-pyrazol-3-yl}-1H-pyrrole-2-carboxylic acid [1-(3-chloro-4-fluoro-phenyl)-2-hydroxy-ethyl]-amide [II-2]”, under 1000 nM. Same read-out and setting: the value for `CC(CC(=O)N(C)C)NCc1ccc(-c2cn[nH]c2-c2c[nH]c(C(=O)N[C@H](CO)c3ccc(F)c(Cl)c3)c2)cc1Cl` (stereo partly shown) [II-52] was under 1000 nM.

On to `CCNC(=O)CNCc1ccc(-c2cn[nH]c2-c2c[nH]c(C(=O)N[C@H](CO)c3ccc(F)c(Cl)c3)c2)cc1Cl` [II-71], for which the Ki is under 1000 nM.

Regarding `CC(=O)NC(CO)C(=O)NCc1ccc(-c2c[nH]nc2-c2c[nH]c(C(=O)N[C@H](CO)c3ccc(F)c(Cl)c3)c2)cc1Cl` (stereo in doubt) [II-20, 4-(4-{4-[(2-Acetylamino-3-hydroxy-propionylamino)-methyl]-3-chloro-phenyl}-1H-pyrazol-3-yl)-1H-pyrrole-2-carboxylic acid [1-(3-chloro-4-fluoro-phenyl)-2-hydroxy-ethyl]-amide], the Ki is under 1000 nM.

As to `CCCN(CCC)Cc1ccc(-c2cn[nH]c2-c2c[nH]c(C(=O)N[C@H](CO)c3ccc(F)c(Cl)c3)c2)cc1Cl` [II-28], the Ki was under 1000 nM. The same measure, in the same setting: under `CC(NCc1ccc(-c2cn[nH]c2-c2c[nH]c(C(=O)N[C@H](CO)c3ccc(F)c(Cl)c3)c2)cc1C(F)(F)F)C(=O)N(C)C` (stereo partly shown) [II-60] stands under 1000 nM; under `O=C(O)CNCc1ccc(-c2cn[nH]c2-c2c[nH]c(C(=O)N[C@H](CO)c3ccc(F)c(Cl)c3)c2)cc1Cl` [II-81], under 1000 nM. Still for that read-out and setting: under `CN(C)CC(=O)NCc1ccc(-c2cn[nH]c2-c2c[nH]c(C(=O)NC(CO)c3ccc(F)c(Cl)c3)c2)cc1Cl` (stereo not shown) [II-13] stands under 1000 nM; under `O=C(CCCO)NCc1ccc(-c2c[nH]nc2-c2c[nH]c(C(=O)NC(CO)c3ccc(F)c(Cl)c3)c2)cc1Cl` (stereo not shown) [II-8, 4-(4-{3-Chloro-4-[(4-hydroxy-butyrylamino)-methyl]-phenyl}-1H-pyrazol-3-yl)-1H-pyrrole-2-carboxylic acid [1-(3-chloro-4-fluoro-phenyl)-2-hydroxy-ethyl]-amide], under 1000 nM. As to `O=C(CCO)NCc1ccc(-c2cn[nH]c2-c2c[nH]c(C(=O)N[C@H](CO)c3ccccc3)c2)cc1Cl` [II-4], the inhibitory constant (Ki) is under 1000 nM.

In the case of `CC(C(=O)N(C)C)N(C)Cc1ccc(-c2cn[nH]c2-c2c[nH]c(C(=O)N[C@H](CO)c3ccc(F)c(Cl)c3)c2)cc1C(F)(F)F` (stereo partly shown) [II-61], the Ki was under 1000 nM. Same read-out and setting: the value for `CC(C)NCc1ccc(-c2cn[nH]c2-c2c[nH]c(C(=O)N[C@H](CO)c3ccc(F)c(Cl)c3)c2)cc1C(F)(F)F` [II-57] was under 1000 nM. On the same count and under the same terms, the value for `CC(=O)NC(CC[S+](C)[O-])C(=O)NCc1ccc(-c2cn[nH]c2-c2c[nH]c(C(=O)NC(CO)c3ccc(F)c(Cl)c3)c2)cc1Cl` (stereo not shown) [II-16] was under 1000 nM. On the same count and under the same terms, the value for `CCC(=O)CNCc1ccc(-c2cn[nH]c2-c2c[nH]c(C(=O)N[C@H](CO)c3ccc(F)c(Cl)c3)c2)cc1Cl` [II-53] was under 1000 nM; that for `NCCNCc1ccc(-c2cn[nH]c2-c2c[nH]c(C(=O)N[C@H](CO)c3ccc(F)c(Cl)c3)c2)cc1Cl` [II-68] was under 1000 nM; that for `CC(NCc1ccc(-c2cn[nH]c2-c2c[nH]c(C(=O)N[C@H](CO)c3ccc(F)c(Cl)c3)c2)cc1Cl)C(=O)N(C)C` (stereo partly shown) [II-66] was under 1000 nM.

`C[S+]([O-])CC(=O)NCc1ccc(-c2cn[nH]c2-c2c[nH]c(C(=O)NC(CO)c3ccc(F)c(Cl)c3)c2)cc1Cl` (stereo not shown) [II-6]: the Ki is under 1000 nM. Turning to `CNC(=O)C(C)N(C)Cc1ccc(-c2cn[nH]c2-c2c[nH]c(C(=O)N[C@H](CO)c3ccc(F)c(Cl)c3)c2)cc1C(F)(F)F` (stereo partly shown) [II-59], the Ki was under 1000 nM. On the same count and under the same terms, the value for `N[C@H](CO)C(=O)NCc1ccc(-c2cn[nH]c2-c2c[nH]c(C(=O)N[C@H](CO)c3ccc(F)c(Cl)c3)c2)cc1Cl` [II-56] was under 1000 nM; that for `N[C@H](CO)C(=O)NCc1ccc(-c2cn[nH]c2-c2c[nH]c(C(=O)NC(CO)c3ccc(F)c(Cl)c3)c2)cc1Cl` (stereo partly shown) [II-18] was under 1000 nM. Same read-out and setting: under `CCOC(=O)CN(C)Cc1ccc(-c2cn[nH]c2-c2c[nH]c(C(=O)N[C@H](CO)c3ccc(F)c(Cl)c3)c2)cc1Cl` [II-83] stands under 1000 nM. Still for that read-out and setting: the value for `CC(=O)N[C@H](C)C(=O)NCc1ccc(-c2cn[nH]c2-c2c[nH]c(C(=O)NC(CO)c3ccc(F)c(Cl)c3)c2)cc1Cl` (stereo partly shown) [II-11] was under 1000 nM; that for `CCOC(=O)C(C)NCc1ccc(-c2cn[nH]c2-c2c[nH]c(C(=O)N[C@H](CO)c3ccc(F)c(Cl)c3)c2)cc1Cl` (stereo partly shown) [II-55] was under 1000 nM.

On to `CCCCN(CCCC)Cc1ccc(-c2cn[nH]c2-c2c[nH]c(C(=O)N[C@H](CO)c3ccc(F)c(Cl)c3)c2)cc1Cl` [II-23], for which the Ki was under 1000 nM.

`CC(O)CNCc1ccc(-c2cn[nH]c2-c2c[nH]c(C(=O)N[C@H](CO)c3ccc(F)c(Cl)c3)c2)cc1Cl` (stereo partly shown) [II-31]: the Ki is under 1000 nM.

On to `NC(=O)CN(CC(N)=O)Cc1ccc(-c2cn[nH]c2-c2c[nH]c(C(=O)N[C@H](CO)c3ccc(F)c(Cl)c3)c2)cc1Cl` [II-74], for which the Ki was under 1000 nM. Consider `CC(C)(C)OC(=O)N[C@H](CO)C(=O)NCc1ccc(-c2cn[nH]c2-c2c[nH]c(C(=O)NC(CO)c3ccc(F)c(Cl)c3)c2)cc1Cl` (stereo partly shown) [II-17], for which the Ki is under 1000 nM.

For `CCNC(=O)CN(CC(=O)NCC)Cc1ccc(-c2cn[nH]c2-c2c[nH]c(C(=O)N[C@H](CO)c3ccc(F)c(Cl)c3)c2)cc1Cl` [II-85], the Ki is under 1000 nM. Still for that read-out and setting: under `CC(=O)NC(CCO)C(=O)NCc1ccc(-c2cn[nH]c2-c2c[nH]c(C(=O)NC(CO)c3ccc(F)c(Cl)c3)c2)cc1Cl` (stereo not shown) [II-5] stands under 1000 nM. Still for that read-out and setting: the value for `N[C@@H](CO)C(=O)NCc1ccc(-c2cn[nH]c2-c2c[nH]c(C(=O)NC(CO)c3ccc(F)c(Cl)c3)c2)cc1Cl` (stereo partly shown) [II-15] was under 1000 nM; that for `CCN(CC)CC(=O)NCc1ccc(-c2cn[nH]c2-c2c[nH]c(C(=O)N[C@H](CO)c3ccc(F)c(Cl)c3)c2)cc1Cl` [II-38] was under 1000 nM; that for `CCCCNCc1ccc(-c2cn[nH]c2-c2c[nH]c(C(=O)N[C@H](CO)c3ccc(F)c(Cl)c3)c2)cc1Cl` [II-22] was under 1000 nM. The same measure, in the same setting: the value for `CCN(CC)CCNCc1ccc(-c2cn[nH]c2-c2c[nH]c(C(=O)N[C@H](CO)c3ccc(F)c(Cl)c3)c2)cc1Cl` [II-82] was under 1000 nM; that for `CN[C@@H](CO)C(=O)NCc1ccc(-c2cn[nH]c2-c2c[nH]c(C(=O)N[C@H](CO)c3ccc(F)c(Cl)c3)c2)cc1Cl` [II-67] was under 1000 nM; that for `CC(C(=O)O)N(C)Cc1ccc(-c2cn[nH]c2-c2c[nH]c(C(=O)N[C@H](CO)c3ccc(F)c(Cl)c3)c2)cc1C(F)(F)F` (stereo partly shown) [II-58] was under 1000 nM. As to `CCCNCc1ccc(-c2cn[nH]c2-c2c[nH]c(C(=O)N[C@H](CO)c3ccc(F)c(Cl)c3)c2)cc1Cl` [II-27], the Ki was under 1000 nM. Same read-out and setting: the value for `CNC(=O)C(C)NCc1ccc(-c2cn[nH]c2-c2c[nH]c(C(=O)N[C@H](CO)c3ccc(F)c(Cl)c3)c2)cc1C(F)(F)F` (stereo partly shown) [II-65] was under 1000 nM; that for `CC(C)(C)OC(=O)N[C@@H](CO)C(=O)NCc1ccc(-c2cn[nH]c2-c2c[nH]c(C(=O)NC(CO)c3ccc(F)c(Cl)c3)c2)cc1Cl` (stereo partly shown) [II-14] was under 1000 nM. The same measure, in the same setting: the value for `CC(=O)NC(CO)C(=O)NCc1ccc(-c2cn[nH]c2-c2c[nH]c(C(=O)N[C@H](CO)c3cccc(Cl)c3)c2)cc1Cl` (stereo partly shown) [II-19] was under 1000 nM. The same measure, in the same setting: under `CCOC(=O)NCc1ccc(-c2cn[nH]c2-c2c[nH]c(C(=O)N[C@H](CO)c3ccc(F)c(Cl)c3)c2)cc1Cl` [II-78] stands under 1000 nM; under `CCN(CC)C(=O)CN(CC(=O)N(CC)CC)Cc1ccc(-c2cn[nH]c2-c2c[nH]c(C(=O)N[C@H](CO)c3ccc(F)c(Cl)c3)c2)cc1Cl` [II-86], under 1000 nM; under `CCOC(=O)CNCc1ccc(-c2c[nH]nc2-c2c[nH]c(C(=O)N[C@H](CO)c3ccc(F)c(Cl)c3)c2)cc1Cl` [II-29], under 1000 nM. Consider `CS(=O)(=O)CC(=O)NCc1ccc(-c2cn[nH]c2-c2c[nH]c(C(=O)N[C@H](CO)c3ccccc3)c2)cc1Cl` [II-1], for which the Ki was under 1000 nM. With `C[C@H](N)C(=O)NCc1ccc(-c2cn[nH]c2-c2c[nH]c(C(=O)N[C@H](CO)c3ccc(F)c(Cl)c3)c2)cc1Cl` [II-69], the Ki was under 1000 nM. The same measure, in the same setting: under `CC(=O)N[C@@H](CS)C(=O)NCc1ccc(-c2cn[nH]c2-c2c[nH]c(C(=O)NC(CO)c3ccc(F)c(Cl)c3)c2)cc1Cl` (stereo partly shown) [II-12] stands under 1000 nM.
